Experimental data published in patent publication US20100016275A1, “NOVEL COMPOUND 395” (priority 2008, published 2010).
Converted amounts (≈) assume the structure as drawn.

Key:
[1] = Bioavailability (F) in the rat; type: in vivo; conditions: plasma, 3 mg/kg; male rat, oral vs iv AUC, dose normalised
Text: Bioavailability (F) in the Rat
This describes the methods used to obtain in vivo pharmacokinetic parameters in the male rat. It is applicable for use with any compound but may need modification based on such parameters as solubility, assay sensitivity, anticipated clearance and half-life, when the default formulation, dose level or sampling intervals may be inappropriate. The method described here represents a standard approach from which justified and documented modifications can be made. This method also allows for single compounds or mixtures (cassettes) to be administered.
A standard dose solution of 1 mg·mL^−1 was prepared. The recommended dose vehicle (if the compound was not sufficiently soluble in isotonic saline) was 50% PEG 400:50% sterile water. The required mass of compound was dissolved in the PEG400 before addition of the water. […]
The concentration of the analyte(s) were determined in plasma quantitative by mass spectrometry.
Pharmacokinetic data analysis and tabulation was achieved using WinNonlin and Excel. […] Bioavailability (F) was calculated from the ratio of the iv and oral AUC (the integral of the plasma concentration time curve) once dose normalised.

[2] = Measurement of solubility (S); type: physicochemical; conditions: thermodynamic from solid; saturated solution, shaken overnight at 20° C.
Text: Measurement of Solubility (S)
The solubility of a compound is an important property affecting the preparation of solutions of the compound for screening, as well as influencing absorption of solid doses of the compound in animal and human studies. The method described below for measuring the solubility involves the generation of a saturated solution of the compound, followed by assaying the solution using HPLC with UV quantification and MS identification.
Saturated solutions for determining the solubility were prepared by placing about 0.3-3.0 ml of solvent in glass screw-top sample tubes along with some of the compound. The tubes are then shaken overnight in the constant temperature room (20° C.). After shaking, undissolved material should be present in the solution, and more was added and shaking continued if this was not the case. The samples were then transferred to a centrifuge tube and centrifuged using a Heraeus Biofuge Fresco centrifuge at 13000 rpm for about 30 minutes. The supernatant was then removed, placed in a new centrifuge tube and centrifuged again for about 30 minutes at 13000 rpm. The undissolved material formed a pellet at the bottom of the tube and the liquid above the pellet was removed for assaying. The solution was then analysed using HPLC with UV quantification. If the response for the compound is very strong then the solution should be accurately diluted such that the response lies within a more suitable range of UV response. A standard was also prepared by accurately weighing a sample of the compound and dissolving it in a suitable volume of a solvent that dissolves it completely (typically, DMSO, ethanol or methanol). This sample was then analysed by HPLC/UV. Again the response of this standard should lie within a suitable range of UV response otherwise a more appropriate concentration should be prepared and analysed by HPLC/UV.
The solubility (S) was calculated from the observed peak areas in the HPLC/UV chromatograms along with corrections for any dilutions of the sample and differences in injection volumes. The following equation was used: […]

Row | bioavailability [1] [%] | solubility [2] [µg/mL] | Compound
1 | 44 | 342 (≈ 854 µM) | Cc1cccc(CSc2nc(N[C@H](C)CO)cc(NS(C)(=O)=O)n2)c1F [Example 39]
2 | 49 | 317 (≈ 667 µM) | C[C@@H](Nc1cc(NS(=O)(=O)N2CCC2)nc(SCc2cccc(F)c2F)n1)[C@@H](O)CO [Example 1, N-(2-[(2,3-difluorobenzyl)thio]-6-{[(1R,2R)-2,3-dihydroxy-1-methylpropyl]amino}pyrimidin-4-yl)azetidine-1-sulfonamide]
3 |  | 372 (≈ 817 µM) | Cc1ccc(CSc2nc(N[C@H](C)CO)cc(NS(=O)(=O)N3CCC3)n2)c(F)c1C [Example 41]
